{
  "source": "patent US7157452B2",
  "about": "“Substituted 4,9-dihydrocyclopenta{imn}phenanthridine-5-ones derivatives thereof and their uses” (MGI GP, Inc., priority 2001, dated 2007)",
  "key": {"Swiss albino mice": {"tested_on": "Swiss albino mice", "experiment": "Gout model: MSU crystal-induced neutrophil recruitment (peritonitis)", "format": "in vivo", "description": "Male outbread Swiss albino mice (20–22 g body weight) were purchased from Banton and Kingsman (T.O. strain; Hull, Humberside) and maintained on a standard chow pellet diet with tap water ad libitum and a 12:00 h light dark cycle. All animals were housed for 1 week prior to experimentation to allow body weight to reach 23–30 g.\n1.11b-dihydrobenzopyrano[4,3,2-de]isoquinolin-1-one was dissolved in 100% DMSO at room temperature at a concentration of 45 mg in 2 ml. The compound was then injected into the peritoneal cavity, so as each mouse received a single dose corresponding to 45 mg/2 ml/kg (e.g. 60 μl for a mouse of 30 g). Control mice received DMSO at 2 ml/kg i.p. A third group of mice which were left untreated were added to control for potential effects of the vehicle. The study involved therefore, the following three groups: group A, untreated mice, n=6, group B, DMSO-treated mice, n=8, and group C, mice treated with 1.1 lb-dihydrobenzopyrano[4,3,2-de]isoquinolin-1-one, n=8\nMSU crystal-induced neutrophil recruitment was tested as follows. In all cases, mice were treated 1 h after the treatment noted above, with MSU crystals. A homogenous suspension of MSU crystals was obtained by a 30 min rotation. Peritonitis was induced by injection of 3 mg MSU crystals in 0.5 ml PBS (0.1 M, pH 7.4), and the recruitment of neutrophils into the cavity evaluated at the 6 h time point (Gerting et al., 1997, J. Pharmacol. Exp. Ther. 233: 123–130). Animals were then euthanised by CO2 exposure and the peritoneal cavity washed with 3 ml of PBS supplemented with 3 mM EDTA and 25 U/ml heparin.\nAn aliquot (100 μl) of the lavage fluid was then diluted 1:10 in Turk's solution (0.01% crystal violet in 3% acetic acid). The samples were then vortexed and 10 μl of the stained cell solution were placed in a Neubauer haematocymometer and neutrophils numbers counted using a light microscope (Olympus B061). […]\nData are shown for single mice, and also shown as mean±S.E. of (n) mice per group. Statistical differences were determined by ANOVA, plus Bonferroni test. […]"}, "rabbits": {"tested_on": "rabbits", "settings": "cited from earlier work"}, "male Long-Evans rats": {"tested_on": "male Long-Evans rats", "experiment": "Focal cerebral ischemia (right distal MCA cauterization with temporary bilateral CCA occlusion)", "format": "in vivo", "settings": "24 h, mean±SD", "description": "Focal cerebral ischemia is produced by cauterization of the right distal MCA (middle cerebral artery) with bilateral temporary common carotid artery occlusion in male Long-Evans rats for 90 minutes. All procedures performed on the animals are approved by the University Institutional Animal Care and Use Committee of the University of Pennsylvania. A total of 42 rats (weights: 230–340 g) obtained from Charles River were used in this study. The animals fasted overnight with free access to water prior to the surgical procedure.\nTwo hours prior to MCA occlusion, varying amounts (control, n=14; 5 mg/kg, n=7; 10 mg/kg, n=7; 20 mg/kg, n=7; and 40 mg/kg, n=7) of the compound, 3,4-dihydro-5-[4-(1-piperidinyl)-butoxy]-1(2H)-isoquinolinone (“DPQ”) were dissolved in dimethyl sulfoxide (DMSO) using a sonicator. A volume of 1.28 ml/kg of the resulting solution was injected intraperitoneally into […].\nThe rats were then anesthetized with halothane (4% for induction and 0.8%–1.2% for the surgical procedure) in a mixture of 70% nitrous oxide and 30% oxygen. The body temperature was monitored by a rectal probe and maintained at 37.5±0.5° C. with a heating blanket regulated by a homeothermic blanket control unit (Harvard Apparatus Limited, Kent, U.K.). A catheter (PE-50) was placed into the tail artery, and arterial pressure was continuously monitored and recorded on a Grass polygraph recorder (Model 7D, Grass Instruments, Quincy, Mass.). Samples for blood gas analysis (arterial pH, PaO2 and PaCO2) were also talcen from the tail artery catheter and measure with a blood gas analyzer (ABL 30, Radiometer, Copenhagen, Denmark). Arterial blood samples were obtained 30 minutes after MCA occlusion.\nThe head of the animal was positioned in a stereotaxic frame, and a right parietal incision between the right lateral canthus and the external auditory meatus was made. Using a dental drill constantly cooled with saline, a 3 mm burr hole was prepared over the cortex supplied by the right MCA, 4 mm lateral to the sagittal suture and 5 mm caudal to the coronal suture. The dura mater and a thin inner bone layer were kept, care being taken to position the probe over a tissue area devoid of large blood vessels. The flow probe (tip diameter of 1 mm fiber separation of 0.23 mm) was lowered to the bottom of the cranial burr hole using a micromanipulator. The probe was held stationary by a probe holder secured to the skull with dental cement. The microvascular blood flow in the right parietal cortex was continuously monitored with a laser Doppler flowmeter (FloLab, Moor, Devon, U.K., and Periflux 4001, Perimed, Stockholm, Sweden). […]"}, "PARP": {"tested_on": "PARP", "settings": "read-out: IC50 for inhibiting PARP; reported by Suto et al.; cited from earlier work"}},
  "note": "Several values for one entry are separate records, joined by “and”; a condition that tells them apart may be missing. Equal entries are not always repeated.",
  "data": [
    {"molecule": "O=C1N=Cc2cccc3c2C1c1ccccc1O3", "note": "(stereo not shown) [1,11b-dihydrobenzopyrano[4,3,2-de]isoquinolin-1-one]", "values": [
      {"measurement": "inhibition of cell influx vs. the vehicle group", "setting": "Swiss albino mice; 45 mg/kg i.p., MSU crystals, 6 h", "value": 55, "unit": "%"},
      {"measurement": "Neutrophil Numbers (single mice)", "setting": "Swiss albino mice; group C, 45 mg/kg i.p. 1 h prior to 3 mg MSU crystals, peritoneal lavage at 6 h, one value per mouse, 45 mg/kg", "value": "2.4 10^6 per mouse (2×) and 3.0 10^6 per mouse (2×) and 2.7 10^6 per mouse and 2.1 10^6 per mouse (2×) and 5.1 10^6 per mouse"},
      {"measurement": "Neutrophils (10^6 per mouse), mean ± S.E.", "setting": "Swiss albino mice; group C, 45 mg/kg i.p., MSU crystals (3 mg), 6 h, n=8, P<0.05 vs. vehicle group B (6.30 ± 0.33)", "value": "2.85 ± 0.34 (8)* 10^6 per mouse"}
    ]},
    {"molecule": "Oc1cccc2c(O)nccc12", "note": "[1,5-dihydroxyisoquinoline]", "values": [
      {"measurement": "reduction in infarct size", "setting": "rabbits; single injection 1 mg/kg", "value": "38–42%"}
    ]},
    {"molecule": "NC(=O)c1cccc(N)c1", "note": "[3-aminobenzamide]", "values": [
      {"measurement": "reduction in infarct size in the heart", "setting": "rabbits; single injection 10 mg/kg, one minute before occlusion or one minute before reperfusion", "value": "32–42%"}
    ]},
    {"molecule": "O=C1NCCc2c(OCCCCN3CCCCC3)cccc21", "note": "[DPQ, 3,4-dihydro-5-[4-(1-piperidinyl)-butoxy]-1(2H)-isoquinolinone]", "values": [
      {"measurement": "damaged volume (infarct volume)", "setting": "male Long-Evans rats; 5 mg/kg i.p. 2 h before and 2 h after MCA occlusion, control 165.2±34.0, p<0.001", "value": "106.7±23.2", "unit": "mm^3"},
      {"measurement": "damaged volume (infarct volume)", "setting": "male Long-Evans rats; 10 mg/kg i.p. 2 h before and 2 h after MCA occlusion, control 165.2±34.0, p<0.001", "value": "76.4±16.3", "unit": "mm^3"},
      {"measurement": "damaged volume (infarct volume)", "setting": "male Long-Evans rats; 20 mg/kg i.p. 2 h before and 2 h after MCA occlusion, control 165.2±34.0, p<0.01", "value": "110.2±42.0", "unit": "mm^3"},
      {"measurement": "damaged volume (infarct volume)", "setting": "male Long-Evans rats; 40 mg/kg i.p. 2 h before and 2 h after MCA occlusion, no significant difference from control 165.2±34.0", "value": "135.6±44.8", "unit": "mm^3"},
      {"measurement": "IC50", "setting": "PARP", "value": 40, "unit": "nM"}
    ]}
  ]
}
